Results: the supplement of paper PMC11061612

Key:
Olaparib = compound: O=C(c1cc(Cc2n[nH]c(=O)c3ccccc23)ccc1F)N1CCN(C(=O)C2CC2)CC1 [Olaparib]; conditions: max 10 µM
How it was run: (§1)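 In 1536-well plates, cancer cell lines in 7.5 μl DMEM/F12 or RPMI with 10% FBS spent 24 hours at 37°C and 5% CO2 and were then dosed for 72 hours with final DMSO typically 0.2%. Viability was read by CellTiter-Glo 2.0 luminescence and scaled between blank-well and DMSO-well means. The single-agent IC50 was fitted from dose responses using a logistic curve in a non-linear mixed effects model, and that logistic curve had two parameters.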

Lapatinib = compound: CS(=O)(=O)CCNCc1ccc(-c2ccc3ncnc(Nc4ccc(OCc5cccc(F)c5)c(Cl)c4)c3c2)o1 [Lapatinib]; conditions: max 10 µM
How it was run: as §1

AZD5153 = compound: COc1nnc2ccc(N3CCC(c4ccc(OCCN5CCN(C)C(=O)[C@H]5C)cc4)CC3)nn12 [AZD5153]; conditions: max 1 µM
How it was run: as §1

AZD0156 = compound: CN(C)CCCOc1ccc(-c2ccc3ncc4c(c3c2)n(C2CCOCC2)c(=O)n4C)cn1 [AZD0156]; conditions: max 3 µM
How it was run: as §1

AZD4320 = compound: CN(CC[C@H](CSC1=CC=CC=C1)NC2=C(C=C(C=C2)S(=O)(=O)NC(=O)C3=CC=C(C=C3)N4CCC(CC4)[C@H](C5=CC=CC=C5C6=CC=C(C=C6)Cl)O)S(=O)(=O)C(F)(F)F)CCO [AZD4320]; conditions: max 1 µM
How it was run: as §1

SN-38 = compound: CCc1c2c(nc3ccc(O)cc13)-c1cc3c(c(=O)n1C2)COC(=O)[C@]3(O)CC [SN-38]; conditions: max 0.3 µM
How it was run: as §1

SG3199 = compound: CC1=CN2[C@@H](C1)C=NC3=CC(=C(C=C3C2=O)OC)OCCCCCOC4=C(C=C5C(=C4)N=C[C@@H]6CC(=CN6C5=O)C)OC [SG3199]; conditions: max 0.001 µM
How it was run: as §1

Savolitinib = compound: C[C@@H](c1ccc2nccn2c1)n1nnc2ncc(-c3cnn(C)c3)nc21 [Savolitinib]; conditions: max 1 µM
How it was run: as §1

AZD5991 = compound: Cc1c2c(nn1C)CSCc1cc(n(C)n1)CSc1cc(c3ccccc3c1)OCCCc1c(C(=O)O)n(C)c3c-2c(Cl)ccc13 [AZD5991]; conditions: max 1 µM
How it was run: as §1

AZD2811 = compound: CCN(CCO)CCCOc1ccc2c(Nc3cc(CC(=O)Nc4cccc(F)c4)[nH]n3)ncnc2c1 [AZD2811]; conditions: max 1 µM
How it was run: as §1

Taselisib = compound: Cc1nc(-c2cn3c(n2)-c2ccc(-c4cnn(C(C)(C)C(N)=O)c4)cc2OCC3)n(C(C)C)n1 [Taselisib]; conditions: max 10 µM
How it was run: as §1

AZD1390 = compound: CC(C)n1c(=O)n(C)c2cnc3cc(F)c(-c4ccc(OCCCN5CCCCC5)nc4)cc3c21 [AZD1390]; conditions: max 0.3 µM
How it was run: as §1

Selumetinib = compound: Cn1cnc2c(F)c(Nc3ccc(Br)cc3Cl)c(C(=O)NOCCO)cc21 [Selumetinib]; conditions: max 10 µM
How it was run: as §1

Capivasertib = compound: C1CN(CCC1(C(=O)N[C@@H](CCO)C2=CC=C(C=C2)Cl)N)C3=NC=NC4=C3C=CN4 [Capivasertib]; conditions: max 10 µM
How it was run: as §1

Crizotinib = compound: C[C@@H](Oc1cc(-c2cnn(C3CCNCC3)c2)cnc1N)c1c(Cl)ccc(F)c1Cl [Crizotinib]; conditions: max 10 µM
How it was run: as §1

Alisertib = compound: COc1cc(Nc2ncc3c(n2)-c2ccc(Cl)cc2C(c2c(F)cccc2OC)=NC3)ccc1C(=O)O [Alisertib]; conditions: max 10 µM
How it was run: as §1

Venetoclax = compound: CC1(C)CCC(CN2CCN(c3ccc(C(=O)NS(=O)(=O)c4ccc(NCC5CCOCC5)c([N+](=O)[O-])c4)c(Oc4cnc5[nH]ccc5c4)c3)CC2)=C(c2ccc(Cl)cc2)C1 [Venetoclax]; conditions: max 1 µM
How it was run: as §1

AZD7648 = compound: Cc1cc2ncnn2cc1Nc1ncc2c(n1)n(C1CCOCC1)c(=O)n2C [AZD7648]; conditions: max 10 µM
How it was run: as §1

AZD8186 = compound: C[C@@H](Nc1cc(F)cc(F)c1)c1cc(C(=O)N(C)C)cc2c(=O)cc(N3CCOCC3)oc12 [AZD8186]; conditions: max 3 µM
How it was run: as §1

Trametinib = compound: CC(=O)Nc1cccc(-n2c(=O)n(C3CC3)c(=O)c3c(Nc4ccc(I)cc4F)n(C)c(=O)c(C)c32)c1 [Trametinib]; conditions: max 1 µM
How it was run: as §1

Gefitinib = compound: COc1cc2ncnc(Nc3ccc(F)c(Cl)c3)c2cc1OCCCN1CCOCC1 [Gefitinib]; conditions: max 10 µM
How it was run: as §1

Prexasertib = compound: COc1cccc(OCCCN)c1-c1cc(Nc2cnc(C#N)cn2)n[nH]1 [Prexasertib]; conditions: max 1 µM
How it was run: as §1

AZD6738 = compound: C[C@@H]1COCCN1C2=NC(=NC(=C2)C3(CC3)[S@](=N)(=O)C)C4=C5C=CNC5=NC=C4 [AZD6738]; conditions: max 10 µM
How it was run: as §1

Palbociclib = compound: CC(=O)c1c(C)c2cnc(Nc3ccc(N4CCNCC4)cn3)nc2n(C2CCCC2)c1=O [Palbociclib]; conditions: max 10 µM
How it was run: as §1

Dasatinib = compound: CC1=C(C(=CC=C1)Cl)NC(=O)C2=CN=C(S2)NC3=CC(=NC(=N3)C)N4CCN(CC4)CCO [Dasatinib]; conditions: max 2 µM
How it was run: as §1

Doxorubicin = compound: COc1cccc2c1C(=O)c1c(O)c3c(c(O)c1C2=O)C[C@@](O)(C(=O)CO)C[C@@H]3O[C@H]1C[C@H](N)[C@H](O)[C@H](C)O1 [Doxorubicin]; conditions: max 1 µM
How it was run: as §1

AZD1775 = compound: C=CCn1c(=O)c2cnc(Nc3ccc(N4CCN(C)CC4)cc3)nc2n1-c1cccc(C(C)(C)O)n1 [AZD1775]; conditions: max 3 µM
How it was run: as §1

Cell Line	IC50, cell viability 72 h (Olaparib)	IC50, cell viability 72 h (Lapatinib)	IC50, cell viability 72 h (AZD5153)	IC50, cell viability 72 h (AZD0156)	IC50, cell viability 72 h (AZD4320)	IC50, cell viability 72 h (SN-38)	IC50, cell viability 72 h (SG3199)	IC50, cell viability 72 h (Savolitinib)	IC50, cell viability 72 h (AZD5991)	IC50, cell viability 72 h (AZD2811)	IC50, cell viability 72 h (Taselisib)	IC50, cell viability 72 h (AZD1390)	IC50, cell viability 72 h (Selumetinib)	IC50, cell viability 72 h (Capivasertib)	IC50, cell viability 72 h (Crizotinib)	IC50, cell viability 72 h (Alisertib)	IC50, cell viability 72 h (Venetoclax)	IC50, cell viability 72 h (AZD7648)	IC50, cell viability 72 h (AZD8186)	IC50, cell viability 72 h (Trametinib)	IC50, cell viability 72 h (Gefitinib)	IC50, cell viability 72 h (Prexasertib)	IC50, cell viability 72 h (AZD6738)	IC50, cell viability 72 h (Palbociclib)	IC50, cell viability 72 h (Dasatinib)	IC50, cell viability 72 h (Doxorubicin)	IC50, cell viability 72 h (AZD1775)
ATN-1 (T-Lymphoblastic Leukemia)	> 10000 nM	> 10000 nM	482 nM	> 3000 nM	130 nM	5.53 nM	> 1 nM	> 1000 nM	109 nM	18.8 nM	83 nM	> 300 nM	> 10000 nM	2020 nM	1410 nM	40.1 nM	> 1000 nM	> 10000 nM	2200 nM	> 1000 nM	> 10000 nM	2.09 nM	664 nM	5840 nM	1700 nM	45.4 nM	60.1 nM
BT-474 (Breast Carcinoma)	> 10000 nM	2540 nM	> 1000 nM	> 3000 nM	> 1000 nM	> 300 nM	> 1 nM	> 1000 nM	> 1000 nM	> 1000 nM	779 nM	> 300 nM	> 10000 nM	> 10000 nM	> 10000 nM	> 10000 nM	> 1000 nM	> 10000 nM	> 3000 nM	> 1000 nM	> 10000 nM	> 1000 nM	> 10000 nM	> 10000 nM	> 2000 nM	> 1000 nM	> 3000 nM
C2BBe1 (Colorectal Carcinoma)	> 10000 nM	> 10000 nM	> 1000 nM	> 3000 nM	> 1000 nM	> 300 nM	> 1 nM	> 1000 nM	> 1000 nM	> 1000 nM	2990 nM	> 300 nM	> 10000 nM	> 10000 nM	> 10000 nM	> 10000 nM	> 1000 nM	> 10000 nM	> 3000 nM	818 nM	> 10000 nM	> 1000 nM	> 10000 nM	> 10000 nM	> 2000 nM	> 1000 nM	2700 nM
DK-MG (Glioblastoma)	> 10000 nM	> 10000 nM	803 nM	> 3000 nM	> 1000 nM	> 300 nM	> 1 nM	> 1000 nM	> 1000 nM	> 1000 nM	> 10000 nM	> 300 nM	> 10000 nM	> 10000 nM	4990 nM	> 10000 nM	> 1000 nM	> 10000 nM	2850 nM	375 nM	> 10000 nM	> 1000 nM	> 10000 nM	> 10000 nM	> 2000 nM	> 1000 nM	2150 nM
